Reference: US10966423B2, “Anti-microbial agent comprising xanthohumol and the use thereof in food products” (Purac Biochem B.V., priority 2015, dated 2021)
≈ marks a conversion by molar mass, not a printed value. Like-named read-outs stand apart in the source and are kept apart here.

Experiments:
Format in all cases: cell-based
[1] = system: lactic acid bacteria (L. curvatus, 3×L. plantarum and L. mesenteroides); assay: shelf life of sausages inoculated with lactic acid bacteria
Protocol: Sausages were produced according to the following procedure. The ingredients defined as weight percentages in Table 5 were used for the preparation of the sausage. Xanthoflav was used as such, without a preparation step such as applied in Example 1.
First the meat was shredded, and salt, tri polyphosphate and half of the water was added. After mixing very well, the other ingredients were added. The meat dough was put in a cook crimp bag and vacuum sealed. After sealing the bags were canned. The sausages were cooked in a cooking cabinet for 120 minutes at 75° C. and afterwards cooled down to 15° C. […]
In a first step an inoculum was prepared as follows. Cultures of lactic acid bacteria (L. curvatus, 3×L. plantarum and L. mesenteroides) are started from plate and incubated overnight at 30° C. in screw-capped tubes (100×16 mm) containing 10 ml MRS broth.
Sausages were inoculated to a final level of about 1000 (10^3) CFU per g product. The sausage was inoculated with 1% Inoculum (approximately 5 ml Inoculum per 500 gram ground meat). […]
Fifty μl of the homogenate or dilution was subsequently plated on MRS agar using an Eddyjet type 1.23 spiral plater (IUL Instruments, Barcelona, Spain). […] The colonies were counted with the Acolyte Supercount automatic colony counter (Synoptics, Cambridge, UK) using the Synoptics software package. […]

[2] = system: Aspergillus Niger; assay: visible growth of mould hyphae in MEA broth; details: MEA broth pH 3.5, 14 days, 25° C., 10^4 spores per ml; xanthohumol 0.008 wt %, propionate 0.085 wt %
Protocol: (§1) Two molds, Aspergillus Niger and Penicillium roquefortii were tested on the combinatory effect of xanthohumol in combination with propionate. MEA broth was inoculated with spores of the fungi to a concentration of 10^4 spores per ml. In this example use has been made of the stock solution of xanthohumol as has been described in example 1 above. 4 ml of said stock solution was added to 96 ml of broth to obtain a 0.008% w/w solution in broth.
(§2) Propionate was added to an end concentration of 0.085% of propionate in broth. Also a solution was made with 0.008% w/w of xanthohumol and 0.085% of propionate in broth. As a control experiment broth without antimicrobial components was used. The pH of all media was set to 3.5. After 14 days of incubation at 25° C., the broth was inspected for visible growth of mould hyphae.

[3] = system: Penicillium roquefortii; assay: visible growth of mould hyphae in MEA broth; details: MEA broth pH 3.5, 14 days, 25° C., 10^4 spores per ml; xanthohumol 0.008 wt %, propionate 0.085 wt %
Protocol: as §1, §2

[4] = system: Lactobacilllus curvatus; assay: minimum inhibitory concentration on lactic acid bacteria, overnight in MRS medium; details: 10^5 cfu/ml
Protocol: (§3) One part xanthohumol Xantho-Flav Extract (with 2% of xanthohumol) on diatomaceous earth is incubated with 9 parts of hot water at 100° C., boiling for <1 minute while vigorously shaking. After incubation, solid material is discarded. This way, a stock solution with 10% of Xanthoflav or about 0.2% xanthohumol (2 mg/ml) is obtained, which is used in the following examples.
(§4) For testing the anti-microbial activity a test composition comprising xanthohumol was applied. The test composition was prepared as follows. At the highest concentration 100 μl of the xanthohumol stock solution at 2 mg/ml in water (See Example 1) was added to 100 μl of 2 times concentrated MRS medium, providing a test composition comprising 1 mg/ml by weight xanthohumol in MRS medium.
(§5) Pre-cultures of test bacteria were cultured using standard techniques. Bacteria were cultured in MRS medium 48 hrs before the start of the experiments.
(§6) Five μl of the bacterium pre-cultures was brought in 200 μl of test medium (medium+component+water) and mixed with a concentration series of the test composition comprising xanthohumol. Final bacterium density at the start of the overnight experiment was 10^5 cfu/ml. Xanthohumol was tested up to a concentration of 0.01 mg/ml (based on an addition level of up to 0.05% w/w of Xanthoflav). Negative control was inoculated broth, positive control was inoculated MRS medium. Bacterium cultures were cultured overnight at 30° C., under constant shaking. After incubation, the minimum inhibitory concentration for each test organism was scored (Table 1).

[5] = system: Lactobacillus acidophilus; assay: as above; details: DSM20079, strain DSM 20079, 30° C., 10^5 cfu/ml, read-out: MIC calculated to xanthohumol
Protocol: as §3, §4, §5, §6

[6] = system: Lactobacillus brevis; assay: as above; details: Levilactobacillus brevis, 10^5 cfu/ml, read-out: MIC calculated to xanthohumol
Protocol: as §3, §4, §5, §6

[7] = system: Lactobacillus farciminis; assay: as above; details: Companilactobacillus farciminis, strain AR053, 30° C., 10^5 cfu/ml, read-out: MIC calculated to xanthohumol
Protocol: as §3, §4, §5, §6

[8] = system: Lactobacillus plantarum; assay: as above; details: Lactiplantibacillus plantarum, 10^5 cfu/ml, read-out: MIC calculated to xanthohumol
Protocol: as §3, §4, §5, §6

[9] = system: Leuconostoc mesenteroides; assay: as above; details: strain AR049, 30° C., 10^5 cfu/ml, read-out: MIC calculated to xanthohumol
Protocol: as §3, §4, §5, §6

[10] = system: Aspergillus flavus; assay: mold outgrowth (OD) in semi-solid MEA agar, xanthohumol/calcium propionate gradient; details: FIG. 4; day 13, pH 6; calcium propionate 0-0.5%, xanthohumol 0-0.00195%
Protocol: (§7) Five molds, Penicillium roquefortii, Aspergillus flavus, Fusarium oxysporum, Paecilomyces variotii, and Mucor plumbeus, were tested on the combinatory effect of xanthohumol combined with calcium propionate. In this example use has been made of a stock solution of 0.52% w/w XanthoFlav (equivalent to 0.0104% w/w xanthohumol) prepared in a similar manner as that described in example 1 above, as well as a stock solution of calcium propionate at 1.6% w/w. A modified semi-solid MEA agar was prepared by mixing 50 g of Malt Extract broth (Oxoid) with 7.5 g of Bacteriological Agar No. 1 (Oxoid) to create a 2× reduced agar MEA. This was autoclaved at 120° C. for 15 minutes. Bottles of this MEA were held at 50° C. until ready for inoculation, at which point they were inoculated with a single strain of the above listed molds at approximately 10^4 spores per ml. This level of inoculation ensures 500-1000 spores per well in the 96 well plate. All media was set to pH 6.
(§8) The 2×MEA was mixed with the stock solutions of xanthohumol, calcium propionate, and sterilized H2O as a diluent in 96 well plates using an automated plate filler to create a concentration gradient of calcium propionate ranging from 0% to 0.5% along one axis and xanthohumol from 0% to 0.00195% along the other axis. Wells containing 0% of both antimicrobials served as a control. This allowed for testing approximately 24 different combinations of the two antimicrobials on one plate. Each well contained 75 μL of inoculated 2× reduced agar MEA, 75 μL of a mix of antimicrobials/diluent, and was capped with 75 μL of paraffin oil after the agar had set. Ninety-six well plates were then sealed with an oxygen permeable membrane to prevent contamination of wells.
(§9) OD measurements were taken approximately once a day, and outgrowth (measured by an increase in OD) was tracked over time. Measurements at the final reading (day 13) were placed in a 3D graph to visualize the additive effects of the two antimicrobials as levels of each increased across the plate.

[11] = system: Fusarium oxysporum; assay: as above; details: FIG. 2; day 13, pH 6; calcium propionate 0-0.5%, xanthohumol 0-0.00195%
Protocol: as §7, §8, §9

[12] = system: Mucor plumbeus; assay: as above; details: FIG. 5; day 13, pH 6; calcium propionate 0-0.5%, xanthohumol 0-0.00195%
Protocol: as §7, §8, §9

[13] = system: Paecilomyces variotii; assay: as above; details: FIG. 3; day 13, pH 6; calcium propionate 0-0.5%, xanthohumol 0-0.00195%
Protocol: as §7, §8, §9

[14] = system: Penicillium roquefortii; assay: as above; details: FIG. 1; day 13, pH 6; calcium propionate 0-0.5%, xanthohumol 0-0.00195%
Protocol: as §7, §8, §9

[15] = system: Lactobacillus plantarum; assay: growth of Lactobacillus plantarum in food products (baby food, pasta sauce); details: for Lactobacillus plantarum cell density: xanthohumol 0.004 mg/ml
Protocol: In this example, the influence of xanthohumol on growth of Lactobacillus plantarum in baby food and in pasta sauce was assessed. For this purpose the baby food was sterilized and the pH was adjusted at pH 4.8, and the pasta sauce was sterilized and the pH was adjusted to pH 4.2. At time-point t=0, three samples of both the baby food and the pasta sauce were inoculated with a Lactobacillus plantarum starter culture, at a final Lactobacillus cell density of approximately 1*10^4 cells/ml. For the baby food and the pasta sauce, one sample each was inoculated in the presence of 0.2% by weight xanthohumol composition to a final concentration of xanthohumol in the food product of 0.004 mg/ml. Lactobacillus plantarum cell density was determined in the food products at t=0 and at t=24 hours.

Compound: C[C@@H]1OC(=O)[C@H](C)OC1=O [Nr 3: 0.8% Lactide, Lactide]
- Shelf life of sausages, Days till 10^7 cfu/g ([1]; inoculated about 10^3 CFU per g, vacuum sealed, stored at 7° C., control 8.0): 12.5 Days
- shelf life improvement as compared to the control ([1]; sausages stored at 7° C.): about 4 days

Compound: CCC(=O)O [propionate, reference compound]
- visible growth of mould hyphae [2]: Growth
- visible growth of mould hyphae [3]: Growth

Compound: COc1cc(O)c(CC=C(C)C)c(O)c1C(=O)/C=C/c1ccc(O)cc1 [xanthohumol]
- MIC calculated to xanthohumol ([4]; strain AR095, 30° C.): 0.01 mg/mL (≈ 28.2 µM)
- MIC ([4]; strain Zand 2, 30° C., read-out: MIC calculated to xanthohumol): 10 µg/mL (≈ 28.2 µM)
- MIC [5]: 10 µg/mL (≈ 28.2 µM)
- MIC ([6]; LMG6906, strain LMG 6906, 30° C.): 2 µg/mL (≈ 5.64 µM)
- MIC ([6]; strain AR043, 30° C.): 2 µg/mL (≈ 5.64 µM)
- MIC [7]: 4 µg/mL (≈ 11.3 µM)
- MIC ([8]; DSM20174, strain DSM 20174, 30° C.): 4 µg/mL (≈ 11.3 µM)
- MIC ([8]; strain AR052, 30° C.): 2 µg/mL (≈ 5.64 µM)
- MIC [9]: 2 µg/mL (≈ 5.64 µM)
- Inhibition of A. flavus (outgrowth by OD) [10]: inhibiting effect by itself
- Inhibition of F. oxysporum (outgrowth by OD) [11]: inhibiting effect by itself
- Inhibition of M plumbeus (outgrowth by OD) [12]: inhibiting effect by itself
- Inhibition of P. variotii (outgrowth by OD) [13]: inhibiting effect by itself
- Inhibition of P. roquefortii (outgrowth by OD) [14]: inhibiting effect by itself
- visible growth of mould hyphae [2]: Growth
- visible growth of mould hyphae [3]: Growth
- Lactobacillus plantarum cell density ([15]; baby food pH 4.8, 0 h): 3.8 × 10^4
- Lactobacillus plantarum cell density ([15]; baby food pH 4.8, 24 h, control 3 × 10^7): 3 × 10^4
- inhibitory effect on Lactobacillus plantarum ([15]; in baby food and pasta sauce): strong inhibitory effect
- Lactobacillus plantarum cell density ([15]; pasta sauce pH 4.2, 0 h): 3 × 10^4
- Lactobacillus plantarum cell density ([15]; pasta sauce pH 4.2, 24 h, control 6 × 10^5): <100
